In patent publication US20150209315A1 (Cumberland Pharmaceuticals, priority 2009, published 2015):

Legend:
[1] = system: post-operative adult patients; assay: Example 1: patient self-assessment of pain, VAS at rest; assay type: in vivo, human
Protocol: Pain was measured by the patient's self-assessment using a Visual Analog Scale (VAS) from 0-10 with 0 being no pain and 10 being intense pain. This was measured both at rest and with movement. […] […] To account for the missing pain assessments, two missing value approaches as described in the statistical analysis plan were used to impute values. To determine the difference in overall pain at differing time-points, the area under the VAS pain curve during the first 24 hours, between 6 and 24 hours and between 12 and 24 hours were analyzed.

[2] = cited from earlier work

Structure (SMILES): CC(C)Cc1ccc(C(C)C(=O)O)cc1 (stereo not shown) [Ibuprofen, 2-(4-isobutylphenyl) propionic acid]
- VAS Score measured at Rest (median) ([1]; 400 mg, ITT, 48-Hour): 1.6
- VAS Score measured at Rest, % Reduction vs Placebo ([1]; 400 mg, ITT, 48-Hour): −6.7%
- VAS Score measured at Rest (median) ([1]; 800 mg, EEP, 1-Hour): 7.0
- VAS Score measured at Rest, % Reduction vs Placebo ([1]; 800 mg, EEP, 1-Hour): 0.0%
- VAS Score measured at Rest (median) ([1]; 800 mg, EEP, 2-Hour): 6.0
- VAS Score measured at Rest, % Reduction vs Placebo ([1]; 800 mg, EEP, 2-Hour): −1.7%
- VAS Score measured at Rest (median) ([1]; 800 mg, EEP, 3-Hour): 5.0
- VAS Score measured at Rest, % Reduction vs Placebo ([1]; 800 mg, EEP, 3-Hour): 0.0%
- VAS Score measured at Rest (median) ([1]; 800 mg, EEP, 6-Hour): 5.0
- VAS Score measured at Rest, % Reduction vs Placebo ([1]; 800 mg, EEP, 6-Hour): −25.0%
- VAS Score measured at Rest (median) ([1]; 800 mg, EEP, 9-Hour): 3.0
- VAS Score measured at Rest (median) ([1]; 800 mg, EEP, 12-Hour): 3.0
- VAS Score measured at Rest, % Reduction vs Placebo ([1]; 800 mg, EEP, 12-Hour): 0.0%
- VAS Score measured at Rest (median) ([1]; 800 mg, EEP, 15-Hour): 2.8
- VAS Score measured at Rest, % Reduction vs Placebo ([1]; 800 mg, EEP, 15-Hour): 6.7%
- VAS Score measured at Rest (median) ([1]; 800 mg, EEP, 18-Hour): 2.0
- VAS Score measured at Rest, % Reduction vs Placebo ([1]; 800 mg, EEP, 18-Hour): 33.3%
- VAS Score measured at Rest (median) ([1]; 800 mg, EEP, 21-Hour): 2.0
- VAS Score measured at Rest, % Reduction vs Placebo ([1]; 800 mg, EEP, 21-Hour): 33.3%
- VAS Score measured at Rest (median) ([1]; 800 mg, EEP, 24-Hour): 2.0
- VAS Score measured at Rest, % Reduction vs Placebo ([1]; 800 mg, EEP, 24-Hour): 33.3%
- VAS Score measured at Rest (median) ([1]; 800 mg, EEP, 27-Hour): 2.3
- VAS Score measured at Rest (median) ([1]; 800 mg, EEP, 30-Hour): 2.4
- VAS Score measured at Rest, % Reduction vs Placebo ([1]; 800 mg, EEP, 30-Hour): 14.3%
- VAS Score measured at Rest (median) ([1]; 800 mg, EEP, 33-Hour): 2.3
- VAS Score measured at Rest, % Reduction vs Placebo ([1]; 800 mg, EEP, 33-Hour): 28.1%
- VAS Score measured at Rest (median) ([1]; 800 mg, EEP, 36-Hour): 2.2
- VAS Score measured at Rest, % Reduction vs Placebo ([1]; 800 mg, EEP, 36-Hour): 15.4%
- VAS Score measured at Rest (median) ([1]; 800 mg, EEP, 39-Hour): 2.7
- VAS Score measured at Rest, % Reduction vs Placebo ([1]; 800 mg, EEP, 39-Hour): −50.0%
- VAS Score measured at Rest (median) ([1]; 800 mg, EEP, 42-Hour): 1.8
- VAS Score measured at Rest, % Reduction vs Placebo ([1]; 800 mg, EEP, 42-Hour): 10.0%
- VAS Score measured at Rest (median) ([1]; 800 mg, EEP, 45-Hour): 2.0
- VAS Score measured at Rest, % Reduction vs Placebo ([1]; 800 mg, EEP, 45-Hour): 4.8%
- VAS Score measured at Rest (median) ([1]; 800 mg, EEP, 48-Hour): 1.1
- VAS Score measured at Rest (median) ([1]; 800 mg, ITT, 1-Hour): 7.0
- VAS Score measured at Rest, % Reduction vs Placebo ([1]; 800 mg, ITT, 1-Hour): 0.0%
- VAS Score measured at Rest (median) ([1]; 800 mg, ITT, 2-Hour): 5.7
- VAS Score measured at Rest, % Reduction vs Placebo ([1]; 800 mg, ITT, 2-Hour): 6.6%
- VAS Score measured at Rest (median) ([1]; 800 mg, ITT, 3-Hour): 5.0
- VAS Score measured at Rest, % Reduction vs Placebo ([1]; 800 mg, ITT, 3-Hour): 0.0%
- VAS Score measured at Rest (median) ([1]; 800 mg, ITT, 6-Hour): 4.0
- VAS Score measured at Rest, % Reduction vs Placebo ([1]; 800 mg, ITT, 6-Hour): 0.0%
- VAS Score measured at Rest (median) ([1]; 800 mg, ITT, 9-Hour): 3.0
- VAS Score measured at Rest (median) ([1]; 800 mg, ITT, 12-Hour): 2.9
- VAS Score measured at Rest, % Reduction vs Placebo ([1]; 800 mg, ITT, 12-Hour): 3.3%
- VAS Score measured at Rest (median) ([1]; 800 mg, ITT, 15-Hour): 2.6
- VAS Score measured at Rest, % Reduction vs Placebo ([1]; 800 mg, ITT, 15-Hour): 21.2%
- VAS Score measured at Rest (median) ([1]; 800 mg, ITT, 18-Hour): 2.0
- VAS Score measured at Rest, % Reduction vs Placebo ([1]; 800 mg, ITT, 18-Hour): 33.3%
- VAS Score measured at Rest (median) ([1]; 800 mg, ITT, 21-Hour): 2.0
- VAS Score measured at Rest, % Reduction vs Placebo ([1]; 800 mg, ITT, 21-Hour): 42.9%
- VAS Score measured at Rest (median) ([1]; 800 mg, ITT, 24-Hour): 2.0
- VAS Score measured at Rest, % Reduction vs Placebo ([1]; 800 mg, ITT, 24-Hour): 33.3%
- VAS Score measured at Rest (median) ([1]; 800 mg, ITT, 27-Hour): 2.2
- VAS Score measured at Rest (median) ([1]; 800 mg, ITT, 30-Hour): 2.3
- VAS Score measured at Rest, % Reduction vs Placebo ([1]; 800 mg, ITT, 30-Hour): 14.8%
- VAS Score measured at Rest (median) ([1]; 800 mg, ITT, 33-Hour): 2.3
- VAS Score measured at Rest, % Reduction vs Placebo ([1]; 800 mg, ITT, 33-Hour): 28.1%
- VAS Score measured at Rest (median) ([1]; 800 mg, ITT, 36-Hour): 2.2
- VAS Score measured at Rest, % Reduction vs Placebo ([1]; 800 mg, ITT, 36-Hour): 15.4%
- VAS Score measured at Rest (median) ([1]; 800 mg, ITT, 39-Hour): 2.7
- VAS Score measured at Rest, % Reduction vs Placebo ([1]; 800 mg, ITT, 39-Hour): −50.0%
- VAS Score measured at Rest (median) ([1]; 800 mg, ITT, 42-Hour): 1.9
- VAS Score measured at Rest, % Reduction vs Placebo ([1]; 800 mg, ITT, 42-Hour): 5.0%
- VAS Score measured at Rest (median) ([1]; 800 mg, ITT, 45-Hour): 1.9
- VAS Score measured at Rest, % Reduction vs Placebo ([1]; 800 mg, ITT, 45-Hour): 5.0%
- VAS Score measured at Rest (median) ([1]; 800 mg, ITT, 48-Hour): 1.3
- VAS Score measured at Rest, % Reduction vs Placebo ([1]; 800 mg, ITT, 48-Hour): 13.3%
- solubility in water [2]: very poorly soluble in water
